# Laboratory results as given in the supplement of paper PMC10307832.
# Columns and labels:
# Assay in all cases: relative viability (nuclei count vs DMSO), 5 days (fraction); higher = more cells survive
# [1] = compound: COc1cc2nc(N3CCCN(C)CC3)nc(NC3CCN(Cc4ccccc4)CC3)c2cc1OC + CS(=O)(=O)N1CCN(Cc2cc3nc(-c4cccc5[nH]ncc45)nc(N4CCOCC4)c3s2)CC1 [Pictilisib] (partner 1 µM)
# In short: (§1)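 Values are medians from duplicate plates. Each reflects relative viability, defined as the nuclei count of treated wells over that of vehicle wells. Lung cancer cell lines in 1536-well plates were pin-tool dosed one day after seeding with one drug alone or with a fixed anchor-drug dose plus five library-drug doses (not always all listed) in √10 steps, then fixed, stained and imaged at 4× after 5 days.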
# AZD6482 + Phenformin = compound: Cc1cc([C@@H](C)Nc2ccccc2C(=O)O)c2nc(N3CCOCC3)cc(=O)n2c1 [AZD6482] + N=C(N)NC(=N)NCCc1ccccc1 [Phenformin] (partner 250 µM)
# In short: as §1
# [2] = compound: COc1cc2nc(N3CCCN(C)CC3)nc(NC3CCN(Cc4ccccc4)CC3)c2cc1OC + CC(=O)Nc1cccc(-n2c(=O)n(C3CC3)c(=O)c3c(Nc4ccc(I)cc4F)n(C)c(=O)c(C)c32)c1 [Trametinib] (partner 0.02 µM)
# In short: as §1
# [3] = compound: COc1cc2nc(N3CCCN(C)CC3)nc(NC3CCN(Cc4ccccc4)CC3)c2cc1OC + NC(=O)Nc1cc(-c2cccc(F)c2)sc1C(=O)N[C@H]1CCCNC1 [AZD7762] (partner 0.2 µM)
# In short: as §1
Cell Line,relative viability ([1]; first compound 0.2 µM),relative viability ([1]; first compound 0.6325 µM),relative viability ([1]; first compound 2 µM),relative viability ([1]; first compound 6.325 µM),relative viability (AZD6482 + Phenformin; first compound 0.08 µM),relative viability (AZD6482 + Phenformin; first compound 0.253 µM),relative viability (AZD6482 + Phenformin; first compound 0.8 µM),relative viability (AZD6482 + Phenformin; first compound 2.53 µM),relative viability (AZD6482 + Phenformin; first compound 8 µM),relative viability ([2]; first compound 0.2 µM),relative viability ([2]; first compound 0.6325 µM),relative viability ([2]; first compound 2 µM),relative viability ([2]; first compound 6.325 µM),relative viability ([3]; first compound 0.2 µM),relative viability ([3]; first compound 0.6325 µM),relative viability ([3]; first compound 2 µM),relative viability ([3]; first compound 6.325 µM)
LXF-289,0.8,0.778,0.804,0.762,0.491,0.471,0.51,0.452,0.307,0.651,0.701,0.634,0.625,1.04,1.05,1.12,1.11
PC-14,0.676,0.541,0.838,0.239,0.488,0.438,0.59,,0.534,0.707,0.648,0.806,0.0693,0.343,0.382,0.357,0.257
NCI-H650,0.959,0.707,1.03,0.562,0.467,,0.431,0.292,0.31,1.01,1.06,1,0.978,0.95,0.93,1.02,0.67
NCI-H1666,0.547,0.424,0.579,0.275,0.532,0.548,0.582,0.525,0.577,0.821,0.781,0.774,0.799,0.901,0.809,0.76,0.746
NCI-H2085,0.446,0.522,0.471,0.404,0.483,0.448,0.406,0.318,0.29,0.504,0.504,0.612,0.525,0.992,0.992,1.09,0.947
NCI-H1734,0.459,0.418,0.392,0.384,0.386,0.333,0.465,0.229,0.226,0.657,0.697,0.738,0.552,0.551,0.505,0.502,0.724
NCI-H2126,0.505,0.557,0.456,0.47,0.507,0.521,0.451,0.355,0.349,0.532,0.572,0.513,0.508,1.04,1.02,1.04,0.982
EMC-BAC-2,0.559,0.555,0.564,0.57,0.489,0.445,0.493,0.352,0.44,0.873,0.857,0.899,0.732,1.06,1.16,1.07,1.29
NCI-H1993,0.709,0.858,0.894,0.811,0.49,0.488,0.471,0.524,0.449,0.497,0.485,0.414,0.589,0.73,0.844,0.816,0.826
NCI-H647,,0.583,0.567,0.254,0.417,0.473,0.399,0.262,0.324,0.514,0.495,0.527,0.238,0.479,0.602,0.512,0.419
NCI-H1792,0.299,0.233,0.247,0.276,0.222,0.237,0.298,,0.13,0.435,0.47,0.466,0.399,0.778,0.591,0.76,0.58
ChaGo-K-1,0.752,0.87,1.12,0.49,0.54,0.397,0.446,0.48,0.416,0.919,0.882,0.932,0.887,0.911,0.852,0.882,0.856
LOU-NH91,0.546,0.585,0.505,0.566,0.546,0.718,0.737,0.46,0.556,0.801,0.778,0.781,0.811,0.727,0.85,0.759,0.793
NCI-H2405,0.453,0.383,0.584,0.328,0.274,,0.346,0.309,0.274,0.652,0.604,0.676,0.591,0.671,0.792,0.829,0.973
LCLC-97TM1,0.186,,0.149,0.139,0.443,0.44,0.39,0.363,0.308,0.181,0.166,0.225,0.195,0.335,0.269,0.297,0.277
NCI-H596,0.396,0.432,0.392,0.359,0.658,0.576,0.636,0.691,0.737,0.748,0.765,0.822,0.655,1.16,1.03,1.23,1.06
NCI-H727,0.391,0.394,0.32,0.346,0.445,0.683,0.465,0.488,0.315,0.425,0.368,0.373,0.361,0.646,0.449,0.578,0.668

Cell Line,relative viability ([1]; first compound 0.2 µM),relative viability ([1]; first compound 0.6325 µM),relative viability ([1]; first compound 2 µM),relative viability ([1]; first compound 6.325 µM),relative viability (AZD6482 + Phenformin; first compound 0.08 µM),relative viability (AZD6482 + Phenformin; first compound 0.253 µM),relative viability (AZD6482 + Phenformin; first compound 0.8 µM),relative viability (AZD6482 + Phenformin; first compound 2.53 µM),relative viability (AZD6482 + Phenformin; first compound 8 µM),relative viability ([2]; first compound 0.2 µM),relative viability ([2]; first compound 0.6325 µM),relative viability ([2]; first compound 2 µM),relative viability ([2]; first compound 6.325 µM),relative viability ([3]; first compound 0.2 µM),relative viability ([3]; first compound 0.6325 µM),relative viability ([3]; first compound 2 µM),relative viability ([3]; first compound 6.325 µM)
H3255,0.487,0.397,0.529,0.422,0.356,0.333,0.386,0.343,0.34,0.593,0.607,0.554,0.537,0.911,0.86,0.972,0.795
NCI-H1437,0.436,0.496,0.49,0.323,0.268,0.287,0.262,0.223,0.261,0.492,0.515,0.527,0.325,1.15,1.17,1.17,1.17
LU99A,0.322,0.304,0.297,0.278,0.903,0.848,0.791,0.691,0.813,0.531,0.47,0.541,0.526,0.383,0.314,0.301,0.285
HCC-827,1.04,1.09,0.636,0.886,0.45,0.345,0.381,0.288,0.301,0.533,0.558,0.518,0.542,0.199,0.213,0.15,0.238
LK-2,0.621,0.565,0.669,0.632,0.405,0.382,0.257,0.338,0.184,0.813,0.928,0.633,0.881,0.463,0.487,0.506,0.249
HCC-366,0.15,0.168,0.098,0.154,0.663,0.609,0.636,0.477,0.45,0.335,0.401,0.358,0.239,0.232,0.203,0.272,0.258
BEN,0.571,0.643,0.69,0.572,0.349,0.281,0.24,0.277,0.182,1.06,1.04,1.02,1.1,0.8,0.82,0.752,0.736
NCI-H23,0.438,0.491,0.574,0.362,0.789,0.785,0.84,0.628,0.658,0.358,0.362,0.44,0.342,0.198,0.322,0.262,0.174
NCI-H1395,0.596,0.589,0.647,0.486,0.388,0.385,0.438,0.347,0.302,1.01,1.03,1.13,0.806,0.413,0.446,0.37,0.335
201T,0.742,0.717,0.64,0.683,0.436,0.433,0.496,0.308,0.314,0.701,0.702,0.71,0.675,0.657,0.619,0.492,0.602
NCI-H2170,0.353,0.371,0.288,0.284,0.418,0.432,0.421,0.386,0.36,0.989,0.856,0.959,0.948,0.936,0.809,0.892,0.833
NCI-H460,0.306,0.513,0.359,0.332,0.492,0.512,0.535,0.326,0.182,0.13,0.16,0.107,0.0898,0.746,0.604,0.562,0.636
HCC-15,0.744,0.883,0.701,0.618,0.499,0.462,0.457,0.349,0.406,0.44,0.386,0.373,0.379,1.28,1.2,1.15,1.34
LCLC-103H,0.635,0.666,0.656,0.585,0.255,0.274,0.342,0.251,0.215,0.682,0.745,0.743,0.671,0.814,0.719,0.903,0.832
NCI-H441,0.407,,0.48,0.38,0.677,0.679,0.967,,0.468,0.366,0.532,0.422,0.33,1.09,1.12,0.973,1.12
EPLC-272H,0.314,0.439,0.303,0.305,0.311,0.241,0.343,0.24,0.154,0.292,0.333,0.268,0.278,0.209,0.209,0.184,0.258
